Patent US10294202B2, “Pyrrolidinones as herbicides” (FMC Corporation, priority 2013, dated 2019)

How the values were obtained:
[1] = tested on: arrowleaf sida; experiment: Test E preemergence herbicide test; format: in vivo, Sida rhombifolia; set-up: key: 0 = no effect, 100 = complete control
Description: (§1) Seeds of plant species selected from corn (Zea mays), soybean (Glycine max), velvetleaf (Abutilon theophrasti), lambsquarters (Chenopodium album), wild poinsettia (Euphorbia heterophylla), pigweed, palmer (palmer pigweed, Amaranthus palmeri), waterhemp (common waterhemp, Amaranthus rudis), surinam grass (Brachiaria decumbens), crabgrass, large (large crabgrass, Digitaria sanguinalis), crabgrass, Brazil (Brazilian crabgrass, Digitaria horizontalis), panicum, fall (fall panicum, Panicum dichotomiflorum), foxtail, giant (giant foxtail, Setaria faberii), foxtail, green (green foxtail, Setaria viridis), goosegrass (Eleusine indica), johnsongrass (Sorghum halepense), ragweed (common ragweed, Ambrosia elatior), barnyardgrass (Echinochloa crus-galli), sandbur (southern sandbur, Cenchrus echinatus), arrowleaf […] rhombifolia), ryegrass, Italian (Italian ryegrass, Lolium multiflorum), dayflower, VA (Virginia dayflower, Commelina virginica), field bindweed (Convolvulus arvensis), morningglory (Ipomoea coccinea), nightshade (eastern black nightshade, Solanum ptycanthum), kochia (Kochia scoparia), nutsedge, yellow (yellow nutsedge, Cyperus esculentus), cocklebur (common cocklebur, Xanthium strumarium), smartweed (ladysthumb smartweed, Polygonum Persicaria) and beggarticks (hairy beggarticks, Bidens pilosa), were planted into a silt loam soil and treated preemergence with test chemicals formulated in a non-phytotoxic solvent mixture which included a surfactant. Treated plants and controls were maintained in a greenhouse for 21 days, after which time all species were compared to controls and visually evaluated. Plant response ratings, summarized in Table E, are based on a scale of 0 to 100 where 0 is no effect and 100 is complete control. A dash (-) response means no test result.

[2] = tested on: soybean; experiment: Test E preemergence herbicide test; format: in vivo, Glycine max; set-up: key: 0 = no effect, 100 = complete control
Description: as §1

[3] = tested on: ragweed; experiment: Test E preemergence herbicide test; format: in vivo, Ambrosia elatior; set-up: key: 0 = no effect, 100 = complete control
Description: as §1

[4] = tested on: canarygrass; experiment: Test D pre-/postemergence herbicide test; format: in vivo, Phalaris minor; settings: for Plant response rating: Canarygrass, scale 0 to 100; for Plant response rating, Canarygrass: scale 0 to 100 (0 no effect, 100 complete control)
Outline: (§2)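 Compound applied in non-phytotoxic solvent with surfactant, either preemergence (silt loam soil) or postemergence (peat moss/vermiculite medium, 2–18 cm plants). Evaluated visually after 7 to 21 days; 0 = no effect, 100 = complete control.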

[5] = tested on: lambsquarters; experiment: Test D pre-/postemergence herbicide test; format: in vivo, Chenopodium album; settings: for Plant response rating: Lambsquarters, scale 0 to 100; for Plant response rating, Lambsquarters: scale 0 to 100 (0 no effect, 100 complete control)
Outline: as §2

[6] = tested on: barnyardgrass; experiment: Test F flood (paddy) test; format: in vivo, Echinochloa crus-galli; settings: 21 d, scale 0-100
Outline: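 Greenhouse paddy, 30/27 °C day/night, 16-h light; sterilized Tama silt loam, 2.6% OM. Plants at 2.0–2.5 leaves; flood 3 cm, compound added directly to water. Visual score at 21 d, 0 = no effect, 100 = complete control, relative to untreated.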

Row | SMILES | Plant response rating, Arrowleaf Sida ([1]; 16 g ai/ha) | Plant response rating, Arrowleaf Sida ([1]; 31 g ai/ha) | Plant response rating, Arrowleaf Sida ([1]; 62 g ai/ha) | Plant response rating, Arrowleaf Sida ([1]; 125 g ai/ha) | Plant response rating, Arrowleaf Sida ([1]; 250 g ai/ha) | Plant response rating, Soybean ([2]; 16 g ai/ha) | Plant response rating, Soybean ([2]; 31 g ai/ha) | Plant response rating, Soybean ([2]; 62 g ai/ha) | Plant response rating, Soybean ([2]; 125 g ai/ha) | Plant response rating, Soybean ([2]; 250 g ai/ha) | Plant response rating, Ragweed ([3]; 16 g ai/ha) | Plant response rating, Ragweed ([3]; 31 g ai/ha) | Plant response rating, Ragweed ([3]; 62 g ai/ha) | Plant response rating, Ragweed ([3]; 125 g ai/ha) | Plant response rating, Ragweed ([3]; 250 g ai/ha) | Plant response rating ([4]; Postemergence, 31 g ai/ha) | Plant response rating ([4]; Postemergence, 62 g ai/ha) | Plant response rating ([4]; Postemergence, 125 g ai/ha) | Plant response rating ([4]; Postemergence, 250 g ai/ha) | Plant response rating ([5]; Postemergence, 31 g ai/ha) | also measured
1 | O=C1NCC(c2ccc(Cl)c(Cl)c2)C1C(=O)Nc1ccccc1F (racemic) [Compound 14] | 0 | 0 | 0 | 0 | 0 | 0 | 0 | 0 | 0 | 0 | 0 | 0 | 0 | 0 | 0 | – | – | – | – | – | –
2 | O=C1NCC(c2ccc(C(F)(F)F)cc2)C1C(=O)Nc1cccc(F)c1F (racemic) [Compound 202] | – | 0 | 30 | 70 | 80 | – | 0 | 0 | 0 | 0 | – | 20 | 80 | 85 | 90 | 0 | 0 | 0 | 0 | 65 | Plant response rating, Canarygrass ([4]; Preemergence, 62 g ai/ha): 10; Plant response rating, Canarygrass ([4]; Preemergence, 31 g ai/ha): 5; Plant response rating ([4]; Preemergence, 125 g ai/ha): 60; Plant response rating ([4]; Preemergence, 250 g ai/ha): 75; Plant response rating ([5]; Postemergence, 62 g ai/ha): 60; Plant response rating ([5]; Postemergence, 125 g ai/ha): 70; Plant response rating ([5]; Postemergence, 250 g ai/ha): 75; Plant response rating, Lambsquarters ([5]; Preemergence, 62 g ai/ha): 85; Plant response rating, Lambsquarters ([5]; Preemergence, 31 g ai/ha): 80; Plant response rating ([5]; Preemergence, 125 g ai/ha): 85; Plant response rating ([5]; Preemergence, 250 g ai/ha): 85
3 | O=C1NCC(c2ccc(OC(F)F)cc2)C1C(=O)Nc1cccc(F)c1F (racemic) [Compound 350] | – | 0 | 0 | 20 | 50 | – | 0 | 0 | 0 | 0 | – | 0 | 0 | 60 | 65 | – | – | – | – | – | –
4 | O=C1NCC(c2ccc(F)c(F)c2)C1C(=O)Nc1cccc(F)c1F (centres unmarked) [Compound 17, N-(2,3-difluorophenyl)-4-(3,4-difluorophenyl)-2-oxo-3-pyrrolidinecarboxamide] | 0 | 0 | 0 | 0 | 0 | 0 | 0 | 0 | 0 | 0 | 0 | 0 | 0 | 0 | 0 | 0 | 0 | 0 | 0 | 0 | Plant response rating ([4]; Postemergence, 16 g ai/ha): 0; Plant response rating ([5]; Postemergence, 16 g ai/ha): 0; Plant response rating ([5]; Postemergence, 62 g ai/ha): 0; Plant response rating ([5]; Postemergence, 125 g ai/ha): 20; Plant response rating ([5]; Postemergence, 250 g ai/ha): 40; Plant response rating, Barnyardgrass ([6]; 125 g ai/ha): 90; Plant response rating, Barnyardgrass ([6]; 250 g ai/ha): 90; Plant response rating, Barnyardgrass ([6]; 500 g ai/ha): 90; Plant response rating, Barnyardgrass ([6]; 1000 g ai/ha): 95; Plant response rating, Barnyardgrass ([6]; 2000 g ai/ha): 100
5 | O=C1NCC(c2ccc(C(F)(F)F)cc2)C1C(=O)Nc1cccc(F)c1F (centres unmarked) [Compound 80, N-(2,3-difluorophenyl)-2-oxo-4-[4-(trifluoromethyl)phenyl]-3-pyrrolidinecarboxamide] | 0 | 0 | 0 | 0 | 10 | 0 | 0 | 0 | 0 | 40 | 0 | 0 | 0 | 0 | 20 | 0 | 0 | 0 | 0 | 45 | Plant response rating, Canarygrass ([4]; Preemergence, 62 g ai/ha): 0; Plant response rating, Canarygrass ([4]; Preemergence, 31 g ai/ha): 0; Plant response rating ([4]; Preemergence, 125 g ai/ha): 10; Plant response rating ([4]; Preemergence, 250 g ai/ha): 20; Plant response rating ([5]; Postemergence, 62 g ai/ha): 45; Plant response rating ([5]; Postemergence, 125 g ai/ha): 40; Plant response rating ([5]; Postemergence, 250 g ai/ha): 35; Plant response rating, Lambsquarters ([5]; Preemergence, 62 g ai/ha): 80; Plant response rating, Lambsquarters ([5]; Preemergence, 31 g ai/ha): 85; Plant response rating ([5]; Preemergence, 125 g ai/ha): 90; Plant response rating ([5]; Preemergence, 250 g ai/ha): 90
